“Also recorded” adds a separate entry of the source.

The target in one data set is CysLT1R wild type (Homo sapiens, UniProt Q9Y271). Briefly: cell-based. The conditions noted are these: HEK293, read-out: % IP1 production (normalized), single replicate values, log[Pranlukast] -11 M; CysLT1-wt.
The test system of data set [1] is CysLT2R. Briefly: IC50 toward CysLT2R of the benzoxazine SAR series, quoted from the literature. Particulars: CysLT2R over CysLT1R; SAR series of ref [30].
Data set [2] concerns CysLT2R. The conditions noted are these: Supplementary Table 3 ref ref.2; cited from earlier work.
In another data set the test system is CysLT1R. Particulars: Supplementary Table 3 ref ref.2; cited from earlier work.
The next data set has as its system HEK293 cells. In words: Quantification of LTD4 degradation in IP1 assay (UPLC/MS). The class given is in vitro ADME. Particulars: 10 µM LTD4 over HEK293 monolayer, 30 min, 37 °C, with or without L-Cys. Here is the method: HEK293 cells were seeded in a 6-well plate at a density of 300,000 cells per well. Forty-eight hours after seeding, medium was removed, and cells were washed twice with PBS. […] After incubation, supernatant was filtered through a 0.22 µm PVDF filter and an internal standard was added before injection on UPLC/MS (Waters UPLC system coupled with a SQ detector 2 and a PDA eλ detector, using an Acquity UPLC BEH C18 column, 2.1 mm × 50 mm, 1.7 μm spherical size). UPLC chromatograms were recorded using the following gradient: water + 0.1% TFA and acetonitrile (0 → 0.2 min, 5% acetonitrile; 0.2 → 1.5 min, 5% → 95%; 1.5 → 1.8 min, 95%; 1.8 → 2.0 min, 95% → 5%; and 2.0 → 2.5 min, 5%). Quantification was done by determining the area under the curve (AUC) ratio of the tested compound over AUC of the internal standard. […] Quantification results are expressed as mean ± s.e.m. of three independent experiments.

CysLT1R wild type, sequence (Q9Y271 whole entry): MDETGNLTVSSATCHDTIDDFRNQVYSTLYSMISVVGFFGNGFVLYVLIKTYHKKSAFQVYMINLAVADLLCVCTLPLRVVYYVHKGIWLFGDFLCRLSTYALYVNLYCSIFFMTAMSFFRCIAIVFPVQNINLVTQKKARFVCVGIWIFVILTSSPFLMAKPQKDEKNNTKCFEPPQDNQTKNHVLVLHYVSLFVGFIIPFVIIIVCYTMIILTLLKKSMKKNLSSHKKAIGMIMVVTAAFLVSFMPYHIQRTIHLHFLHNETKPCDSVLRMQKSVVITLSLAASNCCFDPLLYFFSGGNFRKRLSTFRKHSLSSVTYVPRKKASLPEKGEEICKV

With `O=C(Nc1cccc2c(=O)cc(-c3nnn[nH]3)oc12)c1ccc(OCCCCc2ccccc2)cc1` [pranlukast], the remaining activity at 10 pM at CysLT1R wild type turned out to be 94.3%.

For the molecule `O=C(O)CCCN1C[C@@H](C(=O)O)Oc2c(NC(=O)c3ccc(OCCCCCc4ccccc4)cc3)cccc21` [cpd 15b], the “selectivity for CysLT2R” value in the data set with CysLT2R [1] is given as 200 fold. Further, the IC50 is 0.62 nM in the data set with CysLT2R [2] and 120 nM with CysLT1R.

Consider `CCCCC/C=C\C\C=C/C=C/C=C/[C@@H](SC[C@H](N)C(=O)NCC(=O)O)[C@@H](O)CCCC(=O)O` [LTD4], for which the “LTD4 conversion/degradation in functional assay” value in the data set on HEK293 cells is listed as “No LTD4 conversion was found; also recorded: No LTD4 degradation was observed”.

Source of the values: publication PMC6897958, “Structural basis of ligand selectivity and disease mutations in cysteinyl leukotriene receptors” (Nature Communications, 2019).
